The numbers were not newly measured in patent US20260355131A1, “SPRAY-DRIED COMPOSITIONS COMPRISING ADRENERGIC RECEPTOR MODULATORS” (OREXO AB, priority 2023, published 2026), which cites them from elsewhere.

The conditions of data set [1]: in solution.
The conditions of data set [2]: free acid/base compound.

The structures appear in SMILES notation.

Take `CNC[C@H](O)c1ccc(O)c(O)c1` [epinephrine]: in data set [1], the “pH below which epinephrine is stable” value is on record as “below 4”. Besides, the “optimum pH balancing racemization and oxidation” value in data set [1] (Connors et al) was 3.0-3.8. Also, the aqueous solubility result in data set [2] is “more limited aqueous solubility”.
